Measured values taken from patent publication US20070049564A1 (Wyeth, priority 2005, published 2007).
≈ marks a conversion by molar mass, not a printed value. Read-outs that look alike come from different tables or passages of the source.

Columns and labels:
Assay in all cases: MIC, broth microdilution
[1] = system: E. coli GC 2233; settings: Escherichia coli
[2] = system: E. coli GC 2270; settings: Escherichia coli
[3] = system: E. coli GC 2271; settings: Escherichia coli
[4] = system: E. coli GC 2272; settings: Escherichia coli
[5] = system: E. coli GC 4560; settings: Escherichia coli
[6] = system: E. coli GC 6465; settings: Escherichia coli
[7] = system: E. coli GC 3226; settings: Escherichia coli
[8] = system: E. coli GC 2203; settings: Escherichia coli
[9] = system: E. coli GC 1073; settings: Escherichia coli
[10] = system: P. aeruginosa GC 2214; settings: Pseudomonas aeruginosa
[11] = system: S. aureus GC 1131; settings: Staphylococcus aureus
[12] = system: S. aureus GC 6467; settings: Staphylococcus aureus
[13] = system: S. aureus GC 1079; settings: Staphylococcus aureus
[14] = system: S. aureus GC 6335; settings: Staphylococcus aureus
[15] = system: S. aureus GC 6469; settings: Staphylococcus aureus
[16] = system: S. epidermidis GC 4935; settings: Staphylococcus epidermidis
[17] = system: E. faecalis GC 2265; settings: Enterococcus faecalis
[18] = system: E. faecalis GC 2267; settings: Enterococcus faecalis
[19] = system: E. faecium GC 2243; settings: Enterococcus faecium
[20] = system: c. albicans GC 3066

MIC ([1]; GC2233, read-out: MINIMAL INHIBITORY CONCENTRATION MIC, pre-incubated in Mouse Serum): 2 µg/mL (≈ 2.57 µM)
MIC ([1]; GC2233, read-out: MINIMAL INHIBITORY CONCENTRATION MIC, pre-incubated in Water): > 64 µg/mL
MIC ([2]; GC2270, read-out: MINIMAL INHIBITORY CONCENTRATION MIC, pre-incubated in Mouse Serum): 1 µg/mL (≈ 1.29 µM)
MIC ([2]; GC2270, read-out: MINIMAL INHIBITORY CONCENTRATION MIC, pre-incubated in Water): > 64 µg/mL
MIC ([3]; GC2271, read-out: MINIMAL INHIBITORY CONCENTRATION MIC, pre-incubated in Mouse Serum): 1 µg/mL (≈ 1.29 µM)
MIC ([3]; GC2271, read-out: MINIMAL INHIBITORY CONCENTRATION MIC, pre-incubated in Water): > 64 µg/mL
MIC ([4]; GC2272, read-out: MINIMAL INHIBITORY CONCENTRATION MIC, pre-incubated in Mouse Serum): 2 µg/mL (≈ 2.57 µM)
MIC ([4]; GC2272, read-out: MINIMAL INHIBITORY CONCENTRATION MIC, pre-incubated in Water): 64 µg/mL (≈ 82.3 µM)
MIC ([5]; GC4560, read-out: MINIMAL INHIBITORY CONCENTRATION MIC, pre-incubated in Mouse Serum): 0.5 µg/mL (≈ 0.643 µM)
MIC ([5]; GC4560, read-out: MINIMAL INHIBITORY CONCENTRATION MIC, pre-incubated in Water): 8 µg/mL (≈ 10.3 µM)
MIC ([6]; GC6465, read-out: MINIMAL INHIBITORY CONCENTRATION MIC, pre-incubated in Mouse Serum): 8 µg/mL (≈ 10.3 µM)
MIC ([6]; GC6465, read-out: MINIMAL INHIBITORY CONCENTRATION MIC, pre-incubated in Water): > 64 µg/mL
MIC ([7]; GC3226, read-out: MINIMAL INHIBITORY CONCENTRATION MIC, pre-incubated in Mouse Serum): 2 µg/mL (≈ 2.57 µM)
MIC ([7]; GC3226, read-out: MINIMAL INHIBITORY CONCENTRATION MIC, pre-incubated in Water): > 64 µg/mL
MIC ([8]; GC2203, read-out: MINIMAL INHIBITORY CONCENTRATION MIC, pre-incubated in Mouse Serum): 1 µg/mL (≈ 1.29 µM)
MIC ([8]; GC2203, read-out: MINIMAL INHIBITORY CONCENTRATION MIC, pre-incubated in Water): > 64 µg/mL
MIC ([9]; GC1073, read-out: MINIMAL INHIBITORY CONCENTRATION MIC, pre-incubated in Mouse Serum): 2 µg/mL (≈ 2.57 µM)
MIC ([9]; GC1073, read-out: MINIMAL INHIBITORY CONCENTRATION MIC, pre-incubated in Water): > 64 µg/mL
MIC ([10]; GC2214, read-out: MINIMAL INHIBITORY CONCENTRATION MIC, pre-incubated in Mouse Serum): 32 µg/mL (≈ 41.1 µM)
MIC ([10]; GC2214, read-out: MINIMAL INHIBITORY CONCENTRATION MIC, pre-incubated in Water): > 64 µg/mL
MIC ([11]; GC1131, read-out: MINIMAL INHIBITORY CONCENTRATION MIC, pre-incubated in Mouse Serum): 0.5 µg/mL (≈ 0.643 µM)
MIC ([11]; GC1131, read-out: MINIMAL INHIBITORY CONCENTRATION MIC, pre-incubated in Water): 0.5 µg/mL (≈ 0.643 µM)
MIC ([12]; GC6467, read-out: MINIMAL INHIBITORY CONCENTRATION MIC, pre-incubated in Mouse Serum): 1 µg/mL (≈ 1.29 µM)
MIC ([12]; GC6467, read-out: MINIMAL INHIBITORY CONCENTRATION MIC, pre-incubated in Water): 4 µg/mL (≈ 5.14 µM)
MIC ([13]; GC1079, read-out: MINIMAL INHIBITORY CONCENTRATION MIC, pre-incubated in Mouse Serum): 1 µg/mL (≈ 1.29 µM)
MIC ([13]; GC1079, read-out: MINIMAL INHIBITORY CONCENTRATION MIC, pre-incubated in Water): 2 µg/mL (≈ 2.57 µM)
MIC ([14]; GC6335, read-out: MINIMAL INHIBITORY CONCENTRATION MIC, pre-incubated in Mouse Serum): 0.5 µg/mL (≈ 0.643 µM)
MIC ([14]; GC6335, read-out: MINIMAL INHIBITORY CONCENTRATION MIC, pre-incubated in Water): 1 µg/mL (≈ 1.29 µM)
MIC ([15]; GC6469, read-out: MINIMAL INHIBITORY CONCENTRATION MIC, pre-incubated in Mouse Serum): 1 µg/mL (≈ 1.29 µM)
MIC ([15]; GC6469, read-out: MINIMAL INHIBITORY CONCENTRATION MIC, pre-incubated in Water): 2 µg/mL (≈ 2.57 µM)
MIC ([16]; GC4935, read-out: MINIMAL INHIBITORY CONCENTRATION MIC, pre-incubated in Mouse Serum): 1 µg/mL (≈ 1.29 µM)
MIC ([16]; GC4935, read-out: MINIMAL INHIBITORY CONCENTRATION MIC, pre-incubated in Water): 2 µg/mL (≈ 2.57 µM)
MIC ([17]; GC2265, read-out: MINIMAL INHIBITORY CONCENTRATION MIC, pre-incubated in Mouse Serum): 2 µg/mL (≈ 2.57 µM)
MIC ([17]; GC2265, read-out: MINIMAL INHIBITORY CONCENTRATION MIC, pre-incubated in Water): 8 µg/mL (≈ 10.3 µM)
MIC ([18]; GC2267, read-out: MINIMAL INHIBITORY CONCENTRATION MIC, pre-incubated in Mouse Serum): 2 µg/mL (≈ 2.57 µM)
MIC ([18]; GC2267, read-out: MINIMAL INHIBITORY CONCENTRATION MIC, pre-incubated in Water): 4 µg/mL (≈ 5.14 µM)
MIC ([19]; GC2243, read-out: MINIMAL INHIBITORY CONCENTRATION MIC, pre-incubated in Mouse Serum): 1 µg/mL (≈ 1.29 µM)
MIC ([19]; GC2243, read-out: MINIMAL INHIBITORY CONCENTRATION MIC, pre-incubated in Water): 2 µg/mL (≈ 2.57 µM)
MIC ([20]; Candida albicans, GC3066, read-out: MINIMAL INHIBITORY CONCENTRATION MIC): > 64 µg/mL
MINIMAL INHIBITORY CONCENTRATION MIC ([20]; pre-incubated in Water): >64 UG/ML
SMILES: CCCN(CC(=O)Nc1cc(N(C)C)c2c(c1O)C(=O)C1=C(O)[C@]3(O)C(=O)C(C(N)=O)=C(O)[C@@H](N(C)C)[C@@H]3C[C@@H]1C2)C(=O)OCOC(=O)c1cc(C)cc(C)c1 [Example 26, ({[(2-{[(5aR,6aS,7S,10aS)-9-(aminocarbonyl)-4,7-bis(dimethylamino)-1,8,10a,11-tetrahydroxy-10,12-dioxo-5,5a,6,6a,7,10,10a,12-octahydrotetracen-2-yl]amino}-2-oxoethyl)(propyl)amino]carbonyl}oxy)methyl 3,5-dimethylbenzoate]
